One assay relates to melan-A melanocytes. Format: cell-based.
For assay [1], the system named is hair graying-induced mice (Mitf^mi-vit). To be noted: mouse, in vivo.

One compound from patent publication US20120329739A1 (priority 2010, published 2012) can be followed below.

Turning to `O=c1c(-c2ccc(O)cc2)coc2c([C@@H]3O[C@H](CO)[C@@H](O)[C@H](O)[C@H]3O)c(O)ccc12` [puerarin, 8-C-β-D-glucopyranosyl-7-hydroxy-3-(4-hydroxyphenyl)-4H-1-benzopyran-4-one], in the assay with melan-A melanocytes, the “concentration dependence of melanin synthesis promoting effect” value was “concentration-dependent” and the “melanin content relative to the negative control group” value is “the melanin content is higher than the negative control group”. Besides, the “concentration dependence of the effect on hair melanin content” value in assay [1] is reported as “the effect increases as the concentration of puerarin increases”.
